The values below come from publication PMC2746433 (Biochemistry, 2009).

Read-outs that look alike come from different tables or passages of the source. Residues, ends and D or L forms follow the SMILES beside them. No end group written: not given here. fluorescein = fluorescein (label on the N-terminus)

For experiment [1], the target named is ExoI/SSB/ssDNA ternary complex (Escherichia coli, UniProt P04995). The experiment can be described thus: Exonuclease assay: inhibition of SSB-stimulated ExoI nuclease activity. It counts as biochemical, E. coli.
Another experiment deals with E. coli ExoI (Escherichia coli, UniProt P04995). In words: Peptide competition-binding assay.
The target of experiment [2] is T1, E. coli Exonuclease I (E. coli) (UniProt P04995).
T1 sequence: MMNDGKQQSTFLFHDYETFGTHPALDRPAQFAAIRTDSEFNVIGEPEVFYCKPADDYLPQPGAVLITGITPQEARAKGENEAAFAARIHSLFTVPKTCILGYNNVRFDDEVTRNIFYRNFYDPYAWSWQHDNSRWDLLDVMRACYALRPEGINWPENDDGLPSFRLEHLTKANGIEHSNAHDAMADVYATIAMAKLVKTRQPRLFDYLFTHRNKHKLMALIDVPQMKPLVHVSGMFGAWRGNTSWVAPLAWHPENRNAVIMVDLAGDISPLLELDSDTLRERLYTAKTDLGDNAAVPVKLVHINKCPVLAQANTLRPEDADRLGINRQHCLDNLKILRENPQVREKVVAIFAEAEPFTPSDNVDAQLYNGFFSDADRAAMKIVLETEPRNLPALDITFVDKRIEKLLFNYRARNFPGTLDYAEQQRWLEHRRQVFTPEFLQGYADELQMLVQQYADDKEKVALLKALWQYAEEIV
The experiment can be described thus: fluorescence polarisation. Background: Fluorescence polarisation rises when a labelled molecule tumbles more slowly, as on binding a larger partner.

In experiment [3] the target is T2, E. coli Exonuclease I (E. coli, UniProt P04995 1-475).
T2 sequence (looked up): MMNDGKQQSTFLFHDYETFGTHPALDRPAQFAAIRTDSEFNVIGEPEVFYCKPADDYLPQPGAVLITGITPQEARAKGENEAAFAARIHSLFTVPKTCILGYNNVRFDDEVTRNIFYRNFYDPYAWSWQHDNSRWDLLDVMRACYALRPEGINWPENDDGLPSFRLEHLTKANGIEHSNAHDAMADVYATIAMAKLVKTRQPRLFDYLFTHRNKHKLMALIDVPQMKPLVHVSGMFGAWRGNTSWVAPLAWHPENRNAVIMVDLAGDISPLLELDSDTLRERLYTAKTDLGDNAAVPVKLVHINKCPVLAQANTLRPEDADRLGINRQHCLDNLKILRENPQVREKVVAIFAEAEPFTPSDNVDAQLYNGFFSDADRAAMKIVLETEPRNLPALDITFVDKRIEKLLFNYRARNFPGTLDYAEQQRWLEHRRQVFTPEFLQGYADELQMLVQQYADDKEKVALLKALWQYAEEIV
In words: fluorescence polarisation.

In experiment [4] the target is T2, E. coli Exonuclease I. The experiment can be described thus: fluorescence polarisation. The source holds these as a separate data set.
Experiment [5] has as its target T2, E. coli Exonuclease I.

`CC[C@H](C)[C@H](NC(=O)[C@@H](N)Cc1c[nH]c2ccccc12)C(=O)N1CCC[C@H]1C(=O)N[C@@H](Cc1ccccc1)C(=O)O` [WIPF] (H-WIPF-OH): the values for the IC50 (in experiment [1]; at E. coli ExoI) were above 100 µM and 252 ± 12 µM, respectively. As to SSB-Ct Phe-to-Tyr variant peptide …, in experiment [2], the IC50 (as a rule, the concentration at which inhibition is half-maximal) is 382 µM and the K (bind) (apparent inhibitor dissociation constant) turned out to be 79 µM.

For the molecule SSB-Ct Pro-to-Ser variant peptide …, in experiment [2], the IC50 was determined as 52.9 µM and the K (bind) (apparent inhibitor dissociation constant) was 10.8 µM. WDDDIPF [WDDDIPF] came in with an IC50 in experiment [1] of around 40 µM. The same measure, in the same setting: the value for WDDIPF [WDDIPF] was around 40 µM; that for WDFDDDIPF [WDFDDDIPF] was around 1 µM. In experiment [1], WDIPF [WDIPF, Trp-Asp-Ile-Pro-Phe] displayed an IC50 above 100 µM.

Take WFDDDIPF [WFDDDIPF]: in experiment [1], the IC50 was around 10 µM. Regarding WMAFAAAIPF [WMAFAAAIPF], the concentration for half-maximal inhibition (IC50) in experiment [1] was around 20 µM; on E. coli ExoI it was 169 ± 15 µM. For WMAFDDDIPF [WMAFDDDIPF], the IC50 was around 1 µM in experiment [1] and 11.6 ± 0.9 µM on E. coli ExoI.

As for WMDFADDIPF [WMDFADDIPF], the concentration for half-maximal inhibition (IC50) in experiment [1] is around 1 µM; on E. coli ExoI it was 8.5 ± 0.3 µM.

Regarding WMDFDADIPF [WMDFDADIPF], the concentration for half-maximal inhibition (IC50) in experiment [1] was around 1 µM; on E. coli ExoI, 6.7 ± 0.3 µM. With WMDFDDAIPF [WMDFDDAIPF], the IC50 is around 1 µM in experiment [1] and 9.3 ± 0.3 µM on E. coli ExoI. For WMDFDDD [WMDFDDD], the IC50 in experiment [1] is around 40 µM; on E. coli ExoI, above 1000 µM. Consider WMDFDDDI [WMDFDDDI], for which the IC50 was around 40 µM in experiment [1] and above 1000 µM at E. coli ExoI. Consider WMDFDDDIP [WMDFDDDIP], for which the IC50 is around 40 µM in experiment [1] and above 1000 µM at E. coli ExoI. “WMDFDDDIPF [WMDFDDDIPF, Trp-Met-Asp-Phe-Asp-Asp-Asp-Ile-Pro-Phe]”: in experiment [1], the IC50 was around 1 µM. Regarding WMDFDDDIPY [WMDFDDDIPY], the half-maximal inhibitory concentration (IC50) in experiment [1] is around 10 µM; on E. coli ExoI it was 382 ± 41 µM. WMDFDDDISF [WMDFDDDISF]: the IC50 in experiment [1] was around 10 µM; on E. coli ExoI, 52.9 ± 3.5 µM.

B1: SSB-Ct peptide WMDFDDDIPF (wild type) (peptide)
peptide: WMDFDDDIPF
On to B1, for which, in the experiment with E. coli Exonuclease I [3], the IC50 was 5.2 ± 0.2 µM and the “K_(bind) (apparent inhibitor dissociation constant)” value came to 0.9 ± 0.1 µM.

B2: SSB-Ct N-terminal truncation peptide WDFDDDIPF (peptide)
peptide: WDFDDDIPF
Take B2: in the experiment with E. coli Exonuclease I [3], the half-inhibitory concentration (IC50) turned out to be 4.3 ± 0.1 µM and the “K_(bind) (apparent inhibitor dissociation constant)” value stood at 0.7 ± 0.1 µM.

B3: SSB-Ct N-terminal truncation peptide WFDDDIPF (peptide)
peptide: WFDDDIPF
Consider B3, for which, in the experiment with E. coli Exonuclease I [3], the IC50 came out at 12.1 ± 0.7 µM and the “K_(bind) (apparent inhibitor dissociation constant)” value is 2.3 ± 0.1 µM.

B4: F-SSB-Ct (SSB-Ct with an N-terminal fluorescein) (peptide)
peptide: fluorescein-WMDFDDDIPF
For B4, the Kd (as a rule, the concentration at which binding is half-saturated) was determined as 0.261 ± 0.022 µM in the experiment with E. coli Exonuclease I [4] and 0.178 ± 0.01 µM with E. coli Exonuclease I [5].

B5: SSB-Ct C-terminal truncation peptide WMDFDDDI (peptide)
peptide: WMDFDDDI
On to B5, for which, in the experiment with E. coli Exonuclease I [3], the “K_(bind) (apparent inhibitor dissociation constant)” value was above 200 µM.

B6: SSB-Ct N-terminal truncation peptide WDDIPF (peptide)
peptide: WDDIPF
In the case of B6, in the experiment with E. coli Exonuclease I [3], the IC50 turned out to be 33.5 ± 2.6 µM and the “K_(bind) (apparent inhibitor dissociation constant)” value is 6.8 ± 0.1 µM.

B7: SSB-Ct C-terminal truncation peptide WMDFDDD (peptide)
peptide: WMDFDDD
Turning to B7, in the experiment with E. coli Exonuclease I [3], the “K_(bind) (apparent inhibitor dissociation constant)” value is above 200 µM.

B8: SSB-Ct C-terminal truncation peptide WMDFDDDIP (peptide)
peptide: WMDFDDDIP
For the molecule B8, the “K_(bind) (apparent inhibitor dissociation constant)” value with E. coli Exonuclease I [3] was above 200 µM.

B9: SSB-Ct N-terminal truncation peptide WDIPF (peptide)
peptide: WDIPF
Regarding B9, in the experiment with E. coli Exonuclease I [3], the IC50 is 79.1 ± 2.9 µM and the “K_(bind) (apparent inhibitor dissociation constant)” value stood at 16.2 ± 0.6 µM.

B10: SSB-Ct N-terminal truncation peptide WIPF (peptide)
peptide: WIPF
In the case of B10, in experiment [2], the K (bind) (apparent inhibitor dissociation constant) amounted to 52 µM.

B11: SSB-Ct N-terminal truncation peptide WDDDIPF (peptide)
peptide: WDDDIPF
Regarding B11, in the experiment with E. coli Exonuclease I [3], the IC50 is 25.3 ± 0.9 µM and the “K_(bind) (apparent inhibitor dissociation constant)” value amounted to 5.1 ± 0.8 µM.
